The text below walks through data of patent publication US20100112600A1, “Methods and compositions for modulating synapse formation” (priority 2006, published 2010).

One experiment relates to MEF2A Ser408. The experiment in a line: Immunoblot of phospho-Ser408 MEF2A in depolarized granule neurons. To be noted: granule neurons depolarized with 25 mM KCl; Nim 20 μM, CsA 4 μM. Type of experiment: cell-based, rat. Background: Immunoblotting shows a protein as a band on a membrane.
Another experiment relates to Nur77 promoter. The experiment in a line: Nur77-luciferase reporter gene assay in granule neurons. The note with it: depolarized granule neurons. Type of experiment: cell-based, rat. The method, then: FIG. 5C is a bar graph. […] Treatment with CsA prevented depolarization-induced expression of the WT Nur77-luciferase reporter gene (p<0.0001, ANOVA; n=6), but had no effect on MREmut Nur77-luciferase reporter gene.
(§1) Luciferase assays were performed as described (Shalizi et al., 2006, Science 311: 1012-1017) with minor modifications. Granule neurons were transfected with the reporter constructs pNur77-luc or pNur77mut-luc and pRL-TK and the indicated hpRNA expression plasmids, and an expression construct for Bcl-XL. Granule neurons were switched from full medium to fresh BME supplemented with 5% calf serum (Hyclone) 72 hours after transfection and incubated overnight. 293T cells maintained as described were cotransfected with p5G4luc or pMEF2×3luc and pRL-TK reporter constructs and the indicated expression plasmids by DNA-calcium phosphate precipitation. Fresh growth media was added within 24 hours of transfection. Cells were lysed 48 hours after transfection. In both neurons and 293T cells, firefly-and renilla-luciferase activities were determined using a dual-luciferase assay kit (Promega) according to the manufacturers instructions.
Primary rat cerebellar granule neurons were transfected with the U6/piasx1, U6/piasx2, or control U6 RNAi plasmid together with a luciferase reporter gene controlled by the Nur77 promoter containing two MEF2 response elements (MREs). […]

In another experiment the test system is endogenous MEF2A. The experiment in a line: Immunoblot of sumoylation and acetylation of endogenous MEF2A in depolarized granule neurons. Type of experiment: cell-based, rat.
Experiment [1] deals with granule neuron dendritic claws. Kind of experiment: Dendritic claw number of granule neurons in organotypic cerebellar slices. Type of experiment: cell-based, rat.
Description: The role that MEF2A plays in synaptic dendritic development in the cerebellar cortex was determined. […] To visualize granule neurons undergoing postsynaptic differentiation, organotypic cerebellar slices prepared from postnatal day 9 (P9) rat pups were transfected with an expression plasmid encoding green fluorescent protein (GFP). Transfected granule neurons in the internal granular layer (IGL) had the typical small cell body with associated parallel axonal fibers and few dendrites (FIGS. 1A and 1B). Many dendrites harbored structures with the appearance of dendritic claws that were identified based on classic descriptions as: (i) located at the end of a dendrite, (ii) having cup- or sickle-like appearance, and (iii) displaying undulating or serrated inner surfaces (FIGS. 1C and 1D). […] The effect of MEF2A knockdown on granule neuron dendritic morphogenesis was next determined. Cerebellar slices were transfected with the U6/mef2a plasmid that encodes MEF2A hairpin RNAs (MEF2AhpRNA) or the control U6 plasmid together with a GFP expression plasmid.
Slices were prepared and processed using known methods. […]
Microscopy was carried out using standard methods. […] Images of transfected granule neurons were analyzed using SPOT software for dendritic length, number of primary dendrites, and number of branches per primary dendrite as described.
Experiment [2] concerns MEF2-response elements (MRE-luciferase). Kind of experiment: MRE-luciferase reporter gene assay in cells. Type of experiment: cell-based. The note with it: co-transfected expression plasmid. The method, then: FIG. 4B is a bar graph and a series of immunoblots. Cells coexpressing MEF2A and increasing amounts of MEF2A-SUMO together with a 3-MRE luciferase reporter gene (pMEF2×3-luc) and pRL-TK. […] Lysates were also immunoblotted for MEF2 or ERK1/2.
as §1
Sumoylation of MEF2A represses MEF2-dependent transcription. The effect of PIASx expression on MEF2-dependent transcription in cells was examined. […]

Description for MEF2A Ser408: Lysates of granule neurons were depolarized with 25 mM KCl were immunoblotted for MEF2A, phospho-Ser408 MEF2A or ERK1/2. Nim=Nimodipine, 20 μM.
Cultures of primary granule neurons were isolated from P6 Long-Evans rats using known methods. Granule neurons were maintained in full medium (BME+10% calf serum (Hyclone), 1 mM each penicillin, streptomycin and L-glutamine and 25 mM KCl). Granule neurons were transfected in DMEM by DNA-calcium phosphate precipitation using standard methods.
Description for endogenous MEF2A: In FIG. 3F, granule neurons in non-depolarizing concentrations of KCl (5 mM) were lysed in the presence or absence of the isopeptidase inhibitor N-ethylmaleimide (NEM) and immunoblotted for MEF2A. […] In FIG. 3G, granule neurons are exposed to media containing non-depolarizing (5 mM) or depolarizing (25 mM) concentrations of KCl in the presence of nimodipine (Nim) or its control vehicle (DMSO) were lysed in the presence of NEM and immunoblotted as in FIG. 3F. […] Cultures of primary granule neurons were isolated from P6 Long-Evans rats using known methods. Granule neurons were maintained in full medium (BME+10% calf serum (Hyclone), 1 mM each penicillin, streptomycin and L-glutamine and 25 mM KCl).

For the molecule cyclosporin A, the “depolarization-induced dephosphorylation of MEF2A at Ser408” value in the experiment with MEF2A Ser408 is recorded as “blocked”. In addition, the “MREmut Nur77-luciferase reporter gene” value with Nur77 promoter (Nur77 promoter with mutant MRE) is reported as “no effect”. In addition, the “depolarization-induced expression of the WT Nur77-luciferase reporter gene” value in the experiment with Nur77 promoter (Nur77 promoter with wild type MRE) is given as “prevented”. Also, the “acetylation of endogenous MEF2A” value in the experiment on endogenous MEF2A (depolarized neurons) is reported as “decreased”. Besides, the “sumoylation of endogenous MEF2A” value with endogenous MEF2A (depolarized neurons (25 mM KCl)) is “increased”.

B1: PIASx: MEF2A SUMO E3 ligase; PIASxα and PIASxβ isoforms collectively (protein, UniProt O75928 1-621, looked up)
E3 SUMO-protein ligase PIAS2: MADFEELRNMVSSFRVSELQVLLGFAGRNKSGRKHDLLMRALHLLKSGCSPAVQIKIRELYRRRYPRTLEGLSDLSTIKSSVFSLDGGSSPVEPDLAVAGIHSLPSTSVTPHSPSSPVGSVLLQDTKPTFEMQQPSPPIPPVHPDVQLKNLPFYDVLDVLIKPTSLVQSSIQRFQEKFFIFALTPQQVREICISRDFLPGGRRDYTVQVQLRLCLAETSCPQEDNYPNSLCIKVNGKLFPLPGYAPPPKNGIEQKRPGRPLNITSLVRLSSAVPNQISISWASEIGKNYSMSVYLVRQLTSAMLLQRLKMKGIRNPDHSRALIKEKLTADPDSEIATTSLRVSLMCPLGKMRLTIPCRAVTCTHLQCFDAALYLQMNEKKPTWICPVCDKKAAYESLILDGLFMEILNDCSDVDEIKFQEDGSWCPMRPKKEAMKVSSQPCTKIESSSVLSKPCSVTVASEASKKKVDVIDLTIESSSDEEEDPPAKRKCIFMSETQSSPTKGVLMYQPSSVRVPSVTSVDPAAIPPSLTDYSVPFHHTPISSMSSDLPGLDFLSLIPVDPQYCPPMFLDSLTSPLTASSTSVTTTSSHESSTHVSSSSSRSETGVITSSGSNIPDIISLD
Take B1: the “dendritic claw number on expression of the construct” value in experiment [1] (cerebellar slices transfected with expression plasmid vs control vector) is on record as “robustly increased”. In addition, the “MRE-dependent transcription (luciferase reporter)” value in experiment [2] is on record as “potently inhibited”.

B2: PIASx-Res: wild type PIASx protein expressed from cDNA resistant to piasx2 hpRNAs (protein, UniProt O75928 1-621, looked up)
E3 SUMO-protein ligase PIAS2: B1 E3 SUMO-protein ligase PIAS2
modifications: expressed from hpRNA-resistant cDNA
notes: wild type PIASx protein expressed from cDNA resistant to piasx2 hpRNAs
B2: in experiment [1] (expression in the background of piasx2 RNAi), the “number of claws restored, relative to control U6 transfected cerebellar slices” value was approximately 80%.
